The results in this text go back to patent US4068074A, “Cephalosporin derivatives having at the 3-position of the cephem ring a heterocyclic thiomethyl group with a carboxy or sulfo group and at the 7-position of the cephem ring an α-heterocylic acylaminophenyl-acetamide group” (priority 1974, dated 1978).

Data set [1] deals with Salmonella typhi H901 W. The experiment in a line: MIC against bacteria (Table I), strain (9). It counts as cell-based. As to conditions: Salmonella enterica, TYPHI. From the text:
(§1) Now, for illustrating the excellent pharmacological effects of the compounds of this invention, the values of MIC (γ/ml.) of the compounds against various bacteria are shown in Table 1, in which the compounds of this invention used are shown by example numbers.
(9) Salmonella typhi H901 W

The test system of data set [2] is Escherichia coli kauffmann 0-1. The data set is described as follows: MIC against bacteria (Table I), strain (7). Particulars: Escherichia coli. It counts as cell-based.
Source text: as §1
(7) Escherichia coli kauffmann 0-1

The test system of data set [3] is Proteus vulgaris OXK US. The data set is described as follows: MIC against bacteria (Table I), strain (1). It counts as cell-based. Particulars: (1) Proteus vulgaris OXK US; read-out: MIC.
Source text: as §1
(1) Proteus vulgaris OXK US

In data set [4] the test system is Klebsiella pneumoniae ATCC 10031. The data set is described as follows: MIC against bacteria (Table I), strain (8). It counts as cell-based. As to conditions: ATCC10031.
Source text: as §1
(8) Klebsiella pneumoniae ATCC 10031

Data set [5] in a line: Solubility of salts in water (Table 2). It counts as physicochemical. Particulars: disodium salt, water, showing pH 7.4; read-out: Solubility: disodium salt dissolved in water in an amount of. The source says: An advantage of the compounds of this invention is that the salts, for example, sodium salts of these compounds are readily soluble in water at pH of living bodies, which makes them suitable for injections at high concentration. The solubility of these compounds are illustrated in Table 2 together with a control example.

Data set [6] has as its system Bacillus megatherium 10778. The experiment in a line: MIC against bacteria (Table I), strain (13). It counts as cell-based. As to conditions: (13) Bacillus megatherium 10778; read-out: MIC.
Source text: as §1

Data set [7] has as its system Micrococcus flavus ATCC 10240. The data set is described as follows: MIC against bacteria (Table I), strain (15). It counts as cell-based. As to conditions: Micrococcus flavus, ATCC10240.
Source text: as §1
(15) Micrococcus flavus ATCC 10240

Data set [8] concerns Salmonella enteritidis. The data set is described as follows: MIC against bacteria (Table I), strain (10). Particulars: Salmonella enterica; (10) Salmonella enteritidis; read-out: MIC. It counts as cell-based.
Source text: as §1
(10) Salmonella enteritidis

Data set [9] relates to Proteus vulgaris 0X 19US. The experiment in a line: MIC against bacteria (Table I), strain (2). It counts as cell-based. Particulars: 0X19US.
Source text: as §1
(2) Proteus vulgaris 0X 19US

In data set [10] the test system is Staphylococcus aureus 209P. The experiment in a line: MIC against bacteria (Table I), strain (16). It counts as cell-based.
Source text: as §1
(16) Staphylococcus aureus 209P

Data set [11] concerns Pseudomonas aeruginosa ATCC 8689. The experiment in a line: MIC against bacteria (Table I), strain (4). Particulars: ATCC8689; (4) Pseudomonas aeruginosa ATCC 8689; read-out: MIC. It counts as cell-based.
Source text: as §1
(4) Pseudomonas aeruginosa ATCC 8689

For data set [12], the system named is Psuedomonas ovalis IMA 1002. The experiment in a line: MIC against bacteria (Table I), strain (6). It counts as cell-based. Particulars: (6) Psuedomonas ovalis IMA 1002; read-out: MIC.
Source text: as §1
(6) Psuedomonas ovalis IMA 1002

The subject of data set [13] is Shigella sonnei II 37148. The data set is described as follows: MIC against bacteria (Table I), strain (12). It counts as cell-based. As to conditions: II37148; (12) Shigella sonnei II 37148; read-out: MIC.
Source text: as §1

The subject of data set [14] is Shigella flexneri 2a 1675. The experiment in a line: MIC against bacteria (Table I), strain (11). It counts as cell-based. Particulars: 2A1675; (11) Shigella flexneri 2a 1675; read-out: MIC.
Source text: as §1

Data set [15] has as its system Bacillus subtilis ATCC 6633. The data set is described as follows: MIC against bacteria (Table I), strain (14). It counts as cell-based. As to conditions: ATCC6633; (14) Bacillus subtilis ATCC 6633; read-out: MIC.
Source text: as §1
(14) Bacillus subtilis ATCC 6633

Data set [16] has as its system Staphylococcus Shimanishi. The data set is described as follows: MIC against bacteria (Table I), strain (17). It counts as cell-based.
Source text: as §1
(17) Staphylococcus Shimanishi

Data set [17] deals with Pseudomonas aeruginosa 99 (Gentamycin resistant). The experiment in a line: MIC against bacteria (Table I), strain (5). It counts as cell-based.
Source text: as §1
(5) Pseudomonas aeruginosa 99 (Gentamycin resistant)

In data set [18] the test system is Proteus mirabilis IXM OM-19. The experiment in a line: MIC against bacteria (Table I), strain (3). As to conditions: IXMOM19; (3) Proteus mirabilis IXM OM-19; read-out: MIC. It counts as cell-based.
Source text: as §1
(3) Proteus mirabilis IXM OM-19

For data set [19], the system named is Staphylococcus Onuma. The experiment in a line: MIC against bacteria (Table I), strain (18). It counts as cell-based.
Source text: as §1
(18) Staphylococcus Onuma

≈ marks a conversion by molar mass, not a printed value. Where two headings read alike, the source gives them in different places.

As for `O=C(O)Cc1nnc(SCC2=C(C(=O)O)N3C(=O)[C@@H](NC(=O)[C@H](NC(=O)c4cnccc4O)c4ccccc4)[C@H]3SC2)s1` [Example 25, 7-[D-α-(4-hydroxynicotinoylamido)-α-phenylacetamido]-3-(5-carboxymethyl-1,3,4-thiadiazol-2-yl)thiomethyl-Δ^3-cephem-4-carboxylic acid], the MIC (as a rule, the smallest concentration in the dilution series that meets the test's criterion for growth inhibition) in data set [1] was 0.39 mg/L (≈ 0.607 µM); in data set [2], 3.13 mg/L (≈ 4.87 µM); in data set [3], less than 0.09 mg/L; in data set [4] (Klebsiella pneumoniae) it was 6.25 mg/L (≈ 9.72 µM); in data set [6], 0.39 mg/L (≈ 0.607 µM); in [7] it was 6.25 mg/L (≈ 9.72 µM). For the same compound, the minimal inhibitory concentration (MIC) in data set [8] turned out to be 0.19 mg/L (≈ 0.296 µM); in [9] (Proteus vulgaris), 1.56 mg/L (≈ 2.43 µM); in data set [10] ((16) Staphylococcus aureus 209P, read-out: MIC) it was 0.78 mg/L (≈ 1.21 µM); in data set [11], 12.5 mg/L (≈ 19.4 µM); in data set [12] it was 12.5 mg/L (≈ 19.4 µM); in data set [13], 6.25 mg/L (≈ 9.72 µM). The minimal inhibitory concentration (MIC) was 1.56 mg/L (≈ 2.43 µM) in [14]; 0.39 mg/L (≈ 0.607 µM) in data set [15]; 3.13 mg/L (≈ 4.87 µM) in data set [16] ((17) Staphylococcus Shimanishi, read-out: MIC); 6.25 mg/L (≈ 9.72 µM) in data set [17] (Pseudomonas aeruginosa); 0.39 mg/L (≈ 0.607 µM) in [18]; 6.25 mg/L (≈ 9.72 µM) in data set [19] (Staphylococcus). The solubility (as a rule, the dissolved amount per volume that the medium holds) in data set [5] is greater than 200 mg/mL.

Take `COc1ccncc1C(=O)N[C@@H](C(=O)N[C@@H]1C(=O)N2C(C(=O)O)=C(CSc3nnc(SCC(=O)O)s3)CS[C@H]12)c1ccccc1` [Example 26, 7-[D-α-(4-methoxynicotinoylamido)-α-phenylacetamido]-3-(5-carboxymethylthio-1,3,4-thiadiazole-2-yl)thiomethyl-Δ^3-cephem-4-carboxylic acid]: the minimal inhibitory concentration (MIC) was determined as 6.25 mg/L (≈ 9.07 µM) in data set [1]; 6.25 mg/L (≈ 9.07 µM) in data set [2]; 0.19 mg/L (≈ 0.276 µM) in data set [3]; 12.5 mg/L (≈ 18.1 µM) in data set [4] ((8) Klebsiella pneumoniae ATCC 10031, read-out: MIC); 0.78 mg/L (≈ 1.13 µM) in data set [6]; 6.25 mg/L (≈ 9.07 µM) in data set [7]. Moreover, the MIC in data set [8] worked out at 1.56 mg/L (≈ 2.26 µM); in data set [9] ((2) Proteus vulgaris 0X 19US, read-out: MIC), 0.39 mg/L (≈ 0.566 µM); in [10] (Staphylococcus aureus, 209P), 1.56 mg/L (≈ 2.26 µM); in data set [11] it was 12.5 mg/L (≈ 18.1 µM); in [12], 25 mg/L (≈ 36.3 µM); in data set [13], 6.25 mg/L (≈ 9.07 µM). The MIC in [14] came out at 3.13 mg/L (≈ 4.54 µM); in [15], 0.78 mg/L (≈ 1.13 µM); in data set [16] (Staphylococcus) it was 6.25 mg/L (≈ 9.07 µM); in [17] ((5) Pseudomonas aeruginosa 99 (Gentamycin resistant), read-out: MIC) it was 12.5 mg/L (≈ 18.1 µM); in data set [18], 0.78 mg/L (≈ 1.13 µM); in data set [19] ((18) Staphylococcus Onuma, read-out: MIC) it was 12.5 mg/L (≈ 18.1 µM). In addition, in data set [5], the solubility was greater than 200 mg/mL.
